Measured values published in patent US20260240826A1, “COMPOSITIONS FOR PD-L1 INHIBITION AND METHODS OF USE THEREOF” (ARIZONA BOARD OF REGENTS ON BEHALF OF THE UNIVERSITY OF …, priority 2023, published 2026).

Tested on: SKH-1 mouse skin
Assay: NanoString nCounter gene expression analysis (Mouse Inflammation V2 panel) of SKH-1 mouse skin
Assay type: in vivo
Protocol: UVB exposure was performed on AP-1 luciferase reporter mice on the SKH-1 genetic background at a dose of 2.75 kJ/m2 using FS40 bulbs (Q-Lab Corporation) as described before with the modification that mice were imaged 24 hr post UVB exposure using whole body bioluminescence instead of 48 hr post UVB using ear punches. SSL irradiation of SKH-1 mice (Charles River Laboratories, strain code 477) at a dose of 90 kJ/m2 UVA/6 kJ/m2 UVB was performed using UVA-340 bulbs (Q-Lab Corporation) as described before.
SKH-1 mouse skin [full thickness, 3 biological samples (i.e., 3 mice per treatment group)] treated either with vehicle (acetone) or 8 mM BMS-202 (all 3 times: 24 hr pre, 1 hr pre, and immediately post) and harvested 24 hr after acute SSL. First, total mRNA was prepared using the RNeasy Mini kit (Qiagen). Next, 100 ng was used for NanoString® nCounter® analysis (using the ‘Mouse Inflammation V2’ panel; probing 254 genes, NanoString® Technologies) comparing gene expression between treatment groups. Total mRNA was hybridized with the ‘Mouse Inflammation V2’ code set at 65° C. overnight. Further purification and binding of the hybridized probes to the optical cartridge was performed on the nCounter® Prep Station, and finally, the cartridge was scanned on the nCounter® Digital Analyzer. RCC files were then imported into nSolver4.0 software (NanoString® Technologies) and checked for data quality using default QC settings; all samples passed data quality QC. All samples were normalized using the geometric mean of the housekeeper genes. Expression ratios were calculated by dividing the mean values of all samples in one experimental group (UV+BMS-202) by the mean values of all samples in the reference group (UV+vehicle control). For data analysis, low count threshold value was 200. For heatmap depiction (FIGS. 3A and 3B, FIG. 5 and FIG. 6), a z-score for a specific gene indicates the number of SDs away from the mean of expression in the reference samples. For ‘pathway score analysis’ (FIGS. 4A, 4B, and 4C), each sample's gene expression profile was then condensed into a small set of pathway scores using nCounter® Advanced Analysis software (version 2.0.115). Pathway scores were fit using the first principal component of each gene set's data, oriented such that each pathway score has positive weights for at least half its genes.
Individual samples were run in triplicate format of biological replicates, and data analysis was performed using the nSolver analysis software (4.0). For p-value adjustment (Benjamini-Yekutieli False Discovery Rate; p-value threshold: 0.05), nCounter® Advanced Analysis software (version 2.0.115) was used. Nonparametric data analysis of murine experimentation was performed using the Mann-Whitney test. Differences between groups were considered significant at *p<0.05.

[1] = 8 mM topical + SSL vs SSL control, SKH-1 skin, 24 hr
[2] = 8 mM topical + SSL vs vehicle + SSL

COc1nc(OCc2cccc(-c3ccccc3)c2C)ccc1CNCCNC(C)=O [BMS-202]
Bcl6 fold change [1]: −12.8 fold
C1qa fold change [1]: −4.5 fold
C3 fold change [1]: −9.0 fold
C4a fold change [1]: −5.9 fold
C8b fold change [1]: 26.2 fold
C9 fold change [1]: 18.6 fold
Ccl2 fold change [1]: −5.3 fold
Ccl2 fold downregulation [1]: 5.3 fold
Ccl7 fold change [1]: −8.1 fold
Ccl7 fold downregulation [1]: 8.1 fold
Ccl8 fold change [1]: −5.0 fold
Ccl8 fold downregulation [1]: 5.0 fold
Ccr3 fold change [1]: 20.5 fold
Cdc42 fold change [1]: −4.6 fold
Cebpb fold change [1]: −8.3 fold
Cfl1 fold change [1]: −10.8 fold
Chi3l3 fold change [1]: 10.5 fold
Crp fold change [1]: 23.9 fold
Cxcl1 fold change [1]: −4.1 fold
Cxcl1 fold downregulation [1]: 4.1 fold
Cxcl3 fold change [1]: −9.1 fold
Cxcl5 fold change [1]: −11.6 fold
Cxcl5 fold downregulation [1]: 11.6 fold
Cxcl10 fold change [1]: 4.3 fold
Cysltr2 fold change [1]: 14.4 fold
Defa-rs1 fold change [1]: 51.0 fold
Fos fold change [1]: −4.1 fold
Fos fold downregulation [1]: 4.1 fold
Fxyd2 fold change [1]: −17.0 fold
Gnas fold change [1]: −11.5 fold
Gnas fold downregulation [1]: 11.5 fold
Gnb1 fold change [1]: −5.8 fold
Gnb1 fold downregulation [1]: 5.8 fold
Grb2 fold change [1]: −4.5 fold
H2-Eb1 fold change [1]: −14.2 fold
Hif1a fold change [1]: −9.6 fold
Hif1a fold downregulation [1]: 9.6 fold
II1r1 fold downregulation [1]: 5.5 fold
Ifi44 fold change [1]: 5.2 fold
Ifna1 fold change [1]: 89.3 fold
Ifnb1 fold change [1]: 16.4 fold
Ifng fold change [1]: 10.6 fold
Il1b fold downregulation [1]: 2.9 fold
Il1r1 fold change [1]: −5.5 fold
Il1rap fold downregulation [1]: 3.6 fold
Il6ra fold downregulation [1]: 3.4 fold
Il9 fold change [1]: 28.9 fold
Il10rb fold downregulation [1]: 3.2 fold
Il18 fold change [1]: −20.0 fold
Il18 fold downregulation [1]: 20.0 fold
Il21 fold change [1]: 50.1 fold
Il23a fold change [1]: 6.5 fold
Irf1 fold change [1]: −4.1 fold
Itgb2 fold change [1]: −8.2 fold
Jun fold change [1]: −5.9 fold
Jun fold downregulation [1]: 5.9 fold
Kng1 fold change [1]: 14.9 fold
Ly96 (coreceptor of Tlr4) fold downregulation [1]: 11.0 fold
Ly96 fold change [1]: −11.0 fold
Map2k1 fold change [1]: −5.8 fold
Map2k1 fold downregulation [1]: 5.8 fold
Map2k4 fold change [1]: −6.4 fold
Map2k4 fold downregulation [1]: 6.4 fold
Map3k1 fold change [1]: −4.5 fold
Map3k1 fold downregulation [1]: 4.5 fold
Map3k5 fold change [1]: −6.4 fold
Map3k5 fold downregulation [1]: 6.4 fold
Map3k7 fold downregulation [1]: 3.7 fold
Mapk1 fold downregulation [1]: 3.7 fold
Mapk3 fold change [1]: −6.3 fold
Mapk3 fold downregulation [1]: 6.3 fold
Mapk8 fold downregulation [1]: 3.1 fold
Mapk14 fold change [1]: −5.9 fold
Mapk14 fold downregulation [1]: 5.9 fold
Mapkapk2 fold change [1]: −5.2 fold
Mapkapk2 fold downregulation [1]: 5.1 fold
Mbl2 fold change [1]: 15.7 fold
Mef2c fold change [1]: −64.9 fold
Mmp3 fold downregulation [1]: 3.8 fold
Mmp9 fold change [1]: −8.2 fold
Mmp9 fold downregulation [1]: 8.2 fold
Mrc1 fold change [1]: −5.4 fold
Mx1 fold change [1]: 36.2 fold
Mx2 fold change [1]: 5.3 fold
Myc fold downregulation [1]: 3.3 fold
Myd88 fold downregulation [1]: 2.7 fold
Nf2el2 fold downregulation [1]: 3.5 fold
Nfatc3 fold change [1]: −4.1 fold
Nfatc3 fold downregulation [1]: 4.1 fold
Nfkb1 fold change [1]: −5.9 fold
Nfkb1 fold downregulation [1]: 5.9 fold
Nod2 fold change [1]: −5.1 fold
Nos2 fold change [1]: 6.1 fold
Nr3c1 fold change [1]: −4.9 fold
Oas1a fold change [1]: −4.3 fold
Pdgfa fold change [1]: −5.2 fold
Pdgfa fold downregulation [1]: 5.2 fold
Ppp1r12b fold change [1]: −12.1 fold
Ptgs1 fold downregulation [1]: 3.1 fold
Ptgs2 fold downregulation [1]: 1.7 fold
Rac1 fold change [1]: −7.3 fold
Rac1 fold downregulation [1]: 7.3 fold
Raf1 fold change [1]: −5.7 fold
Raf1 fold downregulation [1]: 5.7 fold
Rhoa fold change [1]: −5.9 fold
Shc1 fold change [1]: −7.4 fold
Stat1 fold downregulation [1]: 2.8 fold
Stat2 fold downregulation [1]: 2.5 fold
Stat3 fold change [1]: −7.4 fold
Stat3 fold downregulation [1]: 7.4 fold
Tcf4 fold change [1]: −4.4 fold
Tgfb1 fold change [1]: −13.3 fold
Tgfb1 fold downregulation [1]: 13.3 fold
Tgfb3 fold downregulation [1]: 2.7 fold
Tlr2 fold downregulation [1]: 2.4 fold
Tlr8 fold downregulation [1]: 3.4 fold
Tlr9 fold change [1]: 8.3 fold
Tnfsf14 fold change [1]: 4.8 fold
Trem2 fold change [1]: −4.5 fold
Tslp fold change [1]: 4.3 fold
Tyrobp fold change [1]: −4.9 fold
pathway score: immune response [2]: upregulated
pathway scores: activation of NFκB, innate immune response, chemokine activity, inflammatory response, angiogenesis [2]: downregulated
